Assay results from patent publication US20050239832A1, “Methods of treatment of amyloidosis using bi-cyclic aspartyl protease inhibitors” (priority 2004, published 2005).

Legend:
A-beta = experiment: Efficacy of compounds to inhibit A-beta concentration (% inhibition vs vehicle control); type: in vivo, rat
Procedure: Efficacious compounds of the present invention are those able to decrease the amount of A-beta produced compared to a control, where beta-secretase mediated cleavage is observed and measured in the absence of the compounds. Detection of efficacy can be by analysis of A-beta levels, for example, by immunoassay, fluorometric or chromogenic assay, HPLC, or other means of detection. The efficacy of the compounds of formula (I) was determined as a percentage inhibition corresponding to A-beta concentrations for tissue treated and untreated with a compound of formula (I).
The invention encompasses compounds of formula (I) that are efficacious. Efficacy is calculated as a percentage of concentrations as follows: Efficacy=(1−(total A-beta in dose group/total A-beta in vehicle control))*100% wherein the “total A-beta in dose group” equals the concentration of A-beta in the tissue, (e.g., rat brain) treated with the compound, and the “total A-beta in vehicle control” equals the concentration of A-beta in the tissue, yielding a % inhibition of A-beta production. Statistical significance is determined by p-value<0.05 using the Mann Whitney t-test. See, for example, Dovey et al., J. Neurochemistry, 2001, 76:173-181. […]

BACE = BACE (Homo sapiens, UniProt P56817); experiment: BACE EC50 (enzyme inhibition, Table on oral bioavailability); type: biochemical
[1] = tested on: HEKp293 cells transfected with APP751 containing the Swedish mutation (A-beta); experiment: cells; type: cell-based; settings: Homo sapiens, read-out: Cell EC50 (nM)
Text: An exemplary assay for the analysis of inhibition of beta-secretase activity utilizes the human embryonic kidney cell line HEKp293 (ATCC Accession No. CRL-1573) transfected with APP751 containing the naturally occurring double mutation Lys651Met652 to Asn651Leu652 (numbered for APP751), commonly called the Swedish mutation and shown to overproduce A-beta (Citron et al., 1992, Nature, 360:672-674), as described in U.S. Pat. No. 5,604,102.
At the end of the treatment period, conditioned media is analyzed for beta-secretase activity, for example, by analysis of cleavage fragments. A-beta can be analyzed by immunoassay, using specific detection antibodies.

[2] = Oral bioavailability in the male Sprague-Dawley rat (IV and PO); type: in vivo; settings: plasma, 10 mg/kg
Procedure: The invention encompasses compounds of formula (I) that are orally bioavailable. Generally, oral bioavailability is defined as the fraction of orally administered dose reaching systemic circulation. Oral bioavailability can be determined following both an intravenous (IV) and oral (PO) administration of a test compound.
Oral bioavailability was determined in the male Sprague-Dawley rat following both IV and PO administration of test compound. Two month-old male rats (250-300 g) were surgically implanted with polyethylene (PE-50) cannula in the jugular vein while under isoflurane anesthesia the day before the in-life phase. Animals were fasted overnight with water ad libitum, then dosed the next day. The dosing regime. consisted of either a 5 mg/kg (2.5 mL/kg) IV dose (N=3) administered to the jugular vein cannula, then flushed with saline, or a 10 mg/kg (5 mL/kg) PO dose (N=3) by esophageal gavage. Compounds were formulated with 10% Solutol in 5% dextrose at 2 mg/mL. Subsequent to dosing, blood was collected at 0.016 (IV only), 0.083, 0.25, 0.5, 1, 3, 6, 9, and 24 h post administration, and heparinized plasma was recovered following centrifugation.
Compounds were extracted from samples following precipitation of the plasma proteins by methanol. The resulting supernatants were evaporated to dryness and reconstituted with chromatographic mobile phase (35% acetonitrile in 0.1% formic acid) and injected onto a reverse phase C18 column (2×50 mm, 5 μm, BDS Hypersil). Detection was facilitated with a multi-reaction-monitoring experiment on a tandem triple quadrupole mass spectrometer (LC/MS/MS) following electrospray ionization. Experimental samples were compared to calibration curves prepared in parallel with aged match rat plasma and quantitated with a weighted 1/x linear regression. The lower limit of quantization (LOQ) for the assay was typically 0.5 ng/mL.
Oral bioavailability (% F) is calculated from the dose normalized ratio of plasma exposure following oral administration to the intravenous plasma exposure in the rat by the following equation % F=(AUCpo/AUCiv)×(Div/Dpo)×100% where D is the dose and AUC is the area-under-the-plasma-concentration-time-curve from 0 to 24 h. AUC is calculated from the linear trapezoidal rule by AUC=((C2+C1)/2)×(T2−T1) where C is concentration and T is time.
Pharmacokinetic parameters were calculated by a non-compartmental approach. See, for example, Gibaldi, M. and Perrier, D., Pharmacokinetics, Second Edition, 1982, Marcel Dekker Inc., New York, N.Y., pp 409-418.

[3] = tested on: catD versus beta-secretase (BACE); experiment: Selectivity for inhibiting BACE over aspartyl protease catD (ratio of IC50 values); type: biochemical; settings: average of four experimental runs
Procedure: Investigation of potential beta-secretase inhibitors produced compounds with increased selectivity for beta-secretase over other aspartyl proteases such as cathepsin D (catD), cathepsin E (catE), HIV protease, and renin. Selectivity was calculated as a ratio of inhibition (IC50) values in which the inhibition of beta-secretase was compared to the inhibition of other aspartyl proteases. […] Alternatively, a compound is selective when its binding affinity is greater for its desired target (e.g., beta-secretase) versus a secondary target (e.g., catD). Accordingly, methods of treatment include administering selective compounds of formula (I) having a lower IC50 value for inhibiting beta-secretase, or greater binding affinity for beta-secretase, than for other aspartyl proteases such as catD, catE, HIV protease, or renin. A selective compound is also capable of producing a higher ratio of desired effects to adverse effects, resulting in a safer method of treatment.
The compounds of formula (I) can be selective for beta-secretase versus catD. […] Selectivity is reported as the ratio of IC50(catD):IC50(BACE).
In the following examples, each value is an average of four experimental runs and multiple values for one compound indicate that more than one experiment was conducted.

in vivo = settings: CF-1, mouse, iv
Procedure: The following assay was employed to determine the brain penetration of compounds encompassed by the present invention.
In-life phase: Test compounds were administered to CF-1 (20-30 g) mice at 10 μmol/kg (4 to 7 mg/kg) following IV administration in the tail vein. Two time-points, 5 and 60 min, were collected post dose. Four mice were harvested for heparinized plasma and non-perfused brains at each time-point for a total of 8 mice per compound.
Analytical phase: Samples were extracted and evaporated to dryness, then reconstituted and injected onto a reverse phase chromatographic column while monitoring the effluent with a triple quadrupole mass spectrometer. Quantitation was then performed with a 1/x^2 weighted fit of the least-squares regression from calibration standards prepared in parallel with the in vivo samples. The LOQ is generally 1 ng/mL and 0.5 ng/g for the plasma and brain respectively. Data was reported in micromolar (μM) units. Brain levels were corrected for plasma volumes (16 μL/g).

[4] = 100 mg/kg, cortex, inhibition of total A-beta vs vehicle control
[5] = 100 mg/kg, plasma, inhibition of total A-beta vs vehicle control

Chain of BACE (P56817 46-501): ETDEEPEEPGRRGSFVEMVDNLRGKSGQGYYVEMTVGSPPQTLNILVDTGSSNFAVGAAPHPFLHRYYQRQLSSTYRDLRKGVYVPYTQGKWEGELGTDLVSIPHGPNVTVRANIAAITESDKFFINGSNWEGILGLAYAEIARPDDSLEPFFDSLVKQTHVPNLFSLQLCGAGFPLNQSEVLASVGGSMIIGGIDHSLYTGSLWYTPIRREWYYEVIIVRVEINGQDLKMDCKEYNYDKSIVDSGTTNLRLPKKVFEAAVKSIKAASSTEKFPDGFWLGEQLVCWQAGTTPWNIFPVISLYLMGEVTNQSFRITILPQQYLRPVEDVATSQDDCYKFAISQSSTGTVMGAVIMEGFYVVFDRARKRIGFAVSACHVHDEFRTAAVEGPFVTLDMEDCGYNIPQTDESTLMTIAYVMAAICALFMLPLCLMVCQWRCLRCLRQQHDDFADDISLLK

Structure (SMILES) | Efficacy (% Inhibition, 100 mg/kg) cortex (A-beta; [4]) [%] | Efficacy (% Inhibition, 100 mg/kg) plasma (A-beta; [5]) [%] | EC50 (BACE) [nM] | bioavailability [2] [%] | also measured
CCc1cc(CC(C)(C)C)cc2c1CCCC2NCC(O)C(Cc1cc(F)cc(F)c1)NC(C)=O (single isomer, unassigned) [91.2 Diastereomer A] | 44 | 57 |  |  | 
CC(=O)NC(Cc1cc(F)cc(F)c1)C(O)CNC1CCNc2ccc(CC(C)(C)C)cc21 (single isomer, unassigned) [91.4 Diastereomer B] | 18 | 59 |  |  | 
CCc1ccc2c(c1)C(NCC(O)C(Cc1cc(F)cc(F)c1)NC(C)=O)CCC2 (single isomer, unassigned) [91.5 Diastereomer A] | 35 | 44 |  |  | 
CCc1cc(CC(C)(C)C)cc2c1CCCC2NCC(O)C(Cc1cc(F)cc(F)c1)NC(C)=O (single isomer, unassigned) [91.8 Diastereomer A] |  |  | 12 | 23.3 | EC50 [1]: 32 nM
CC(=O)NC(Cc1cc(F)cc(F)c1)C(O)CNC1CCNc2ccc(CC(C)(C)C)cc21 (single isomer, unassigned) [91.10 Diastereomer B] |  |  | 190 | 5 | EC50 [1]: 13 nM
CC(=O)NC(Cc1cc(F)cc(F)c1)C(O)CNC1CCCc2ccc(CC(C)(C)C)cc21 (stereo not drawn) [Example 91.1, N-{1-(3,5-Difluoro-benzyl)-3-[7-(2,2-dimethyl-propyl)-1,2,3,4-tetrahydro-naphthalen-1-ylamino]-2-hydroxy-propyl}-acetamide] |  |  | 9 | 15 | Efficacy (% Inhibition, 100 mg/kg) cortex (A-beta; rat, in vivo): 47%; Efficacy (% Inhibition, 100 mg/kg) plasma (A-beta; rat, in vivo): 63%
CC(C)(C)Cc1ccc2c(c1)C(NCC(O)C(Cc1cc(F)cc(F)c1)NC(=O)CF)CCC2 (stereo not drawn) [Example 91.3, N-{1-(3,5-Difluoro-benzyl)-3-[7-(2,2-dimethyl-propyl)-1,2,3,4-tetrahydro-naphthalen-1-ylamino]-2-hydroxy-propyl}-2-fluoro-acetamide] | 14 | 23 |  |  | 
CC(=O)NC(Cc1cc(F)cc(F)c1)C(O)CNC1c2cc(CC(C)(C)C)ccc2CCC1CO (stereo not drawn) [Example 91.6, N-{1-(3,5-Difluoro-benzyl)-3-[7-(2,2-dimethyl-propyl)-2-hydroxymethyl-1,2,3,4-tetrahydro-naphthalen-1-ylamino]-2-hydroxy-propyl}-acetamide] |  |  |  |  | Selectivity IC50 catD/ IC50 BACE [3]: 4.4
CCc1ccc2c(c1)C(NCC(O)C(Cc1cc(F)cc(F)c1)NC(C)=O)CCN2 (stereo not drawn) [Example 91.7, N-[1-(3,5-Difluoro-benzyl)-3-(6-ethyl-1,2,3,4-tetrahydro-quinolin-4-ylamino)-2-hydroxy-propyl]-acetamide] |  |  |  |  | Selectivity IC50 catD/ IC50 BACE [3]: 2.1
CCc1ccc2c(c1)C(NCC(O)C(Cc1cc(F)cc(F)c1)NC(C)=O)CCC2 (stereo not drawn) [Example 91.11, N-[1-(3,5-Difluoro-benzyl)-3-(7-ethyl-1,2,3,4-tetrahydro-naphthalen-1-ylamino)-2-hydroxy-propyl]-acetamide] |  |  | 210 | 14.3 | 
CC(C)(C)NC(=O)[C@@H]1CN(Cc2cccnc2)CCN1C[C@@H](O)C[C@@H](Cc1ccccc1)C(=O)N[C@H]1c2ccccc2C[C@H]1O [Indinavir] |  |  |  |  | concentration at 5 min (in vivo): 165 nM; concentration at 60 min (in vivo): 11 nM
